The values that follow come from patent EP1900728A1 (Genecare Research Institute Co., Ltd, priority 2005, dated 2006).

The target of experiment [1] is T1, IκBα ubiquitinating enzyme (SCF complex: ROC1, Cullin1, Skp1, His-TrCP1; with E1, UbcH5b) (Homo sapiens, UniProt P62877+P63208+Q13616+Q9Y297).
T1 construct: His (polyhistidine); made in house; host or cells: insect cells (baculovirus) for the SCF complex and His-E1; E. coli for His-UBCH5b
The experiment in a line: Measurement of ubiquitinating enzyme activity (IκBα ubiquitination, time-resolved fluorescence with Eu(K)-labeled ubiquitin and XL665-labeled anti-GST antibody). It counts as biochemical. The method in brief:
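Human SCF complex with E1 and UbcH5b ubiquitinated GST-IκBα pre-phosphorylated by IKKβ (2 mM ATP, pH 7.4, 1 h, RT), with Eu(K)-ubiquitin, 30 min RT. Stopped with EDTA, XL665 anti-GST added for 2 h; 665/620 nm TR-FRET ratio. % inhibition versus no-compound control and no-SCF blank gave IC50.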

Experiment [2] has as its system ICAM-1 expression in HT-29 cells. The experiment in a line: Measurement of ICAM-1 expressing activity (TNFα-induced ICAM-1 expression, cell ELISA). It counts as cell-based. The note with it: Homo sapiens, Table 6, cell activity inhibition test by method (3), read-out: EVALUATION (IC50 class, inhibition of cell activity). The procedure:
Method 2: Measurement of ICAM-1 expressing activity
2.0 x 10^4 HT-29 cells (ATCC) were plated onto a 96-well plate, and the cells were cultured for 48 hours using a McCoy' 5A medium (GIBCO) containing 10% inactivated fetal calf serum. The culture medium was removed, a culture medium containing a compound to be evaluated (final DMSO concentration of 0.5%) was added, and this was incubated at 37°C for 30 minutes. Thirty ng/mL of human TNFα (GIBCO) was added, and this was incubated at 37°C for 4 hours. After washing once with a washing solution (PBS containing 0.05% Tween 20), ice-cooled methanol was added, and this was left on ice for 10 minutes and then fixed. After removing methanol, PBS containing 1% BSA was added, and blocking was performed by letting this stand at room temperature for 30 minutes. Anti-ICAM-1 antibody (Santa Cruz Biotechnology) was added, and this was left to stand at room temperature for 1 hour. After washing with the washing solution, POD-labeled secondary antibody was added, and this was left to stand at room temperature for 30 minutes. This was washed, 100 µL of 100 mM citric acid buffer (pH4.2) containing 1 mM TMBZ and 0.03% H2O2 was added, and this was reacted at room temperature for 15 minutes. The reaction was terminated with 100 µL of 2 N H2SO4, and the absorbance at 450 nm was measured using ARVO-HTS (Perkin Elmer).
When cells are stimulated with TNFα, IκBα is degraded after ubiquitination resulting in the activation of NFκB and the promotion of the expression of adhesion factor ICAM-1. Therefore, the suppression of ICAM-1 expression described above serves as an indicator to determine the effectiveness of the compound in the cells.

[3] abbreviates: enzyme activity inhibition test, method (1), Table 5, read-out: EVALUATION

Structures are written as SMILES. Read-outs that look alike come from different tables or passages of the source. Some results are limits rather than exact numbers.

T1 sequence (Q9Y297 whole entry): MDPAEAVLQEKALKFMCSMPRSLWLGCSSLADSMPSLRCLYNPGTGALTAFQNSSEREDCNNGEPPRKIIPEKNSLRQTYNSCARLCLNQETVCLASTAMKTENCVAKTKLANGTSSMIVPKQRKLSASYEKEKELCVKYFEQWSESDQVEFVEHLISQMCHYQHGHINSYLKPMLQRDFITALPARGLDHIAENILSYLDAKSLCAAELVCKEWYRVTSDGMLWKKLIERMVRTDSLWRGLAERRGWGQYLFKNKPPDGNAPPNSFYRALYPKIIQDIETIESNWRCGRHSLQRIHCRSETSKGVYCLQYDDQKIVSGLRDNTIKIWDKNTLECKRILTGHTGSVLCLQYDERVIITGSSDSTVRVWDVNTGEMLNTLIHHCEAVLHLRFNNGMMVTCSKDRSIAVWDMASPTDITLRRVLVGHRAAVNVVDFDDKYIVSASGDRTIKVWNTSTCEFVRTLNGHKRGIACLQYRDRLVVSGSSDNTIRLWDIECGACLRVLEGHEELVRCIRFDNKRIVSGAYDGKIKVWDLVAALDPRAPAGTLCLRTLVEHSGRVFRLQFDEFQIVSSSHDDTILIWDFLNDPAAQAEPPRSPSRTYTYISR
T1 sequence (Q13616 whole entry): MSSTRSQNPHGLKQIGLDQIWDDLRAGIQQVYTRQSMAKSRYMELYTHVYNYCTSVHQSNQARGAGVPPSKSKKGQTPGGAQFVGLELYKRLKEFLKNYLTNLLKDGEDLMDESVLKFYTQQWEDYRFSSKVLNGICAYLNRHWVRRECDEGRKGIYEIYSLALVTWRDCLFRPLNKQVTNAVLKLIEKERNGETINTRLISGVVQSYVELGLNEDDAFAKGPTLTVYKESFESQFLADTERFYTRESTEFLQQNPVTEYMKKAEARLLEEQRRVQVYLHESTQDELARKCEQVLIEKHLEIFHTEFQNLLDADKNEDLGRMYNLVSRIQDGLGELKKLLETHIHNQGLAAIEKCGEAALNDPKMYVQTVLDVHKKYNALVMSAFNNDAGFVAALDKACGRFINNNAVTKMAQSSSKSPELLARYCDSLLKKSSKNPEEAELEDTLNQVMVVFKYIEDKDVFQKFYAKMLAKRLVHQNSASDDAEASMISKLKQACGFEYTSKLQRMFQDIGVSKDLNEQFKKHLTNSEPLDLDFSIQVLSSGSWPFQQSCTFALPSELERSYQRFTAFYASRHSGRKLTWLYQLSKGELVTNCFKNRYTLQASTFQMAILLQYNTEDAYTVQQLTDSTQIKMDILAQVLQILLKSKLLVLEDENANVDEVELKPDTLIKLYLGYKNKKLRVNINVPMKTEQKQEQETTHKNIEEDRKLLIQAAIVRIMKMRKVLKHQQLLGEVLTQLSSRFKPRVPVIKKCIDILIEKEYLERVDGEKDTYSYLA
T1 sequence (P63208 whole entry): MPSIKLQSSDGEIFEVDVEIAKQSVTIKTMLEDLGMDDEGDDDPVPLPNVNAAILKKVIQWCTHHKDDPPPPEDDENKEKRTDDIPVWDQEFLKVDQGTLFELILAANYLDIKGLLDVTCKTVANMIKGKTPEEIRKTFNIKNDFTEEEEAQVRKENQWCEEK
T1 sequence (P62877 whole entry): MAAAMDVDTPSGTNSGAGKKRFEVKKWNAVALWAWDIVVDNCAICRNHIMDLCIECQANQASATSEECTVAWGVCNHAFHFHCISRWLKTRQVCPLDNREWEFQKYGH

Consider `CCCCC1=NN(c2ccccc2)C(=O)C1=Cc1ccc(-n2cccn2)cc1` [Compound 58], for which the IC50 in experiment [1] was < 10 µM; in experiment [2], < 40 µM.

As to `CC1=NN(c2cccc(S(N)(=O)=O)c2)C(=O)C1=Cc1ccc(N2CCN(C(=O)OC(C)(C)C)CC2)cc1` [Compound 180], the IC50 in experiment [1] was 10 to 20 µM; in experiment [2], < 40 µM.

`COc1ccc(C2=NN(c3ccc(C(=O)O)cc3)C(=O)/C2=C\c2ccc(N3CCCC3)cc2)cc1OC` [Compound 281]: the IC50 was < 10 µM in experiment [1] (setting [3]) and 10 to 20 µM in experiment [2].

As to `COc1cccc(-c2ccc(/C=C3\C(=O)N(c4ccc(C(=O)O)cc4)N=C3C)o2)c1` [Compound 501], the IC50 in experiment [1] (setting [3]) and in experiment [2] was < 10 µM in each case.

For the compound `COc1ccc(C2=NN(c3ccccc3)C(=O)/C2=C\c2ccc3c(c2)OCCO3)cc1OC` [Compound 37], the IC50 is 10 to 20 µM in experiment [1] (setting [3]) and < 40 µM in experiment [2].

Turning to `COCC1=NN(c2ccc(C(=O)O)cc2)C(=O)/C1=C\c1ccc(N2CCN(C(=O)OC)CC2)cc1` [Compound 235], the IC50 in experiment [1] (setting [3]) and in experiment [2] was < 10 µM in each case.

For the compound `CC1=NN(c2ccc(C(=O)O)cc2)C(=O)C1=Cc1ccc(OCc2ccc([N+](=O)[O-])cc2)cc1` [Compound 541], the IC50 in experiment [1] and in experiment [2] was < 10 µM throughout.

On to `COCC1=NN(c2ccc(C(=O)O)cc2)C(=O)/C1=C\c1ccc2c(c1)OCCO2` [Compound 239], for which the IC50 in experiment [1] (setting [3]) and in experiment [2] was < 10 µM in each case.

Take `COCC1=NN(c2ccc(C(=O)O)cc2)C(=O)/C1=C\c1ccc(N2CCCC2)cc1` [Compound 236]: the IC50 was < 10 µM in experiment [1] (setting [3]) and 10 to 20 µM in experiment [2].

Regarding `CCCCC1=NN(c2ccc(C(=O)O)cc2)C(=O)/C1=C\c1ccc2c(c1)OCCO2` [Compound 303], the IC50 in experiment [1] (setting [3]) and in experiment [2] was < 10 µM each time.

Turning to `CC1=NN(c2ccc(S(N)(=O)=O)cc2)C(=O)/C1=C\c1ccc2ccccc2c1` [Compound 116], the IC50 in experiment [1] (setting [3]) and in experiment [2] was 10 to 20 µM throughout.

Consider `O=C1/C(=C\c2ccc(CO)o2)C(Cc2ccccc2)=NN1c1ccccc1` [Compound 27], for which the IC50 was < 10 µM in experiment [1] (setting [3]) and 10 to 20 µM in experiment [2].

On to `CC1=NN(c2ccc(C(=O)O)cc2)C(=O)/C1=C\c1ccc(F)cc1` [Compound 351], for which the IC50 is 10 to 20 µM in experiment [1] (setting [3]) and < 40 µM in experiment [2].

Take `CC1=NN(c2cccc(C(=O)O)c2)C(=O)C1=Cc1ccc(N2CCN(c3ccccc3)CC2)cc1` [Compound 423]: the values for the IC50 in experiment [1] (setting [3]) and in experiment [2] were < 10 µM and < 40 µM, respectively.

Consider `CC1=NN(c2ccc(C(=O)O)cc2)C(=O)/C1=C\c1ccc(N2CCCC2)cc1` [Compound 256], for which the IC50 in experiment [1] (setting [3]) is 10 to 20 µM; in experiment [2] it was < 40 µM.

Regarding `COc1ccc(C2=NN(c3ccc(C(=O)O)cc3)C(=O)/C2=C\c2ccc(OCc3ccccc3)c(OC)c2)cc1OC` [Compound 277], the IC50 was < 10 µM in experiment [1] (setting [3]) and 10 to 20 µM in experiment [2].

In the case of `COc1ccc(C2=NN(c3ccc(C(=O)O)cc3)C(=O)C2=Cc2ccc(O)c(OC)c2)cc1` [Compound 324], the IC50 in experiment [1] and in experiment [2] was < 10 µM throughout.

As to `COc1cc(/C=C2\C(=O)N(c3ccc(C(=O)O)cc3)N=C2C)ccc1OCC(=O)OC(C)(C)C` [Compound 346], the IC50 in experiment [1] (setting [3]) is < 10 µM; in experiment [2], 10 to 20 µM.

`CC1=NN(c2ccc(S(N)(=O)=O)cc2)C(=O)/C1=C\c1ccc(NC(=O)c2ccccc2)cc1` [Compound 224]: the IC50 in experiment [1] (setting [3]) was < 10 µM; in experiment [2] it was 10 to 20 µM.

For `CC(C)=CC(=O)Nc1ccc(C=C2C(=O)N(c3ccc(S(N)(=O)=O)cc3)N=C2C)cc1` [Compound 232], the values for the IC50 in experiment [1] and in experiment [2] were 10 to 20 µM and < 40 µM, respectively.

On to `CC1=NN(c2ccc(S(N)(=O)=O)cc2)C(=O)C1=Cc1ccc(NC(=O)c2ccc3ccccc3c2)cc1` [Compound 227], for which the IC50 was < 10 µM in experiment [1] and 10 to 20 µM in experiment [2].

With `COc1cc(/C=C2\C(=O)N(c3ccc(C(=O)O)cc3)N=C2Cc2ccccc2)ccc1O` [Compound 263], the IC50 in experiment [1] (setting [3]) and in experiment [2] was 10 to 20 µM each time.

As to `CC1=NN(c2ccc(C(=O)O)cc2)C(=O)/C1=C\c1ccc(OCC(=O)N2CCOCC2)cc1` [Compound 538], the results for the IC50 in experiment [1] (setting [3]) and in experiment [2] were < 10 µM and < 40 µM, respectively.

For the compound `CCCCC1=NN(c2cccc(C(=O)O)c2)C(=O)/C1=C\c1ccc2c(c1)OCO2` [Compound 473], the IC50 was 10 to 20 µM in experiment [1] (setting [3]) and < 40 µM in experiment [2].

On to `COC(=O)c1ccc(COc2ccc(/C=C3\C(=O)N(c4ccc(S(N)(=O)=O)cc4)N=C3C)cc2OC)cc1` [Compound 120], for which the results for the IC50 in experiment [1] (setting [3]) and in experiment [2] were < 10 µM and < 40 µM, respectively.

Regarding `CC1=NN(c2ccc(C(=O)O)cc2)C(=O)C1=Cc1ccc(OCCCN(C)C)cc1` [Compound 543], the IC50 in experiment [1] and in experiment [2] was < 10 µM each time.

For the compound `COc1cc(C=C2C(=O)N(c3cccc4ccccc34)N=C2C)ccc1O` [Compound 195], the IC50 in experiment [1] is < 10 µM; in experiment [2], 10 to 20 µM.

For `CC(=O)c1ccc(-c2ccc(/C=C3\C(=O)N(c4ccc(C(=O)O)cc4)N=C3C)o2)cc1` [Compound 502], the IC50 in experiment [1] (setting [3]) and in experiment [2] was < 10 µM in each case.

On to `COc1cc(/C=C2\C(=O)N(c3cccc(C(=O)O)c3)N=C2C)ccc1OCC1CCCCC1` [Compound 407], for which the IC50 in experiment [1] (setting [3]) was 10 to 20 µM; in experiment [2], < 40 µM.

For `CC1=NN(c2ccc(S(N)(=O)=O)cc2)C(=O)/C1=C\c1ccc2[nH]ccc2c1` [Compound 133], the IC50 in experiment [1] (setting [3]) was < 10 µM; in experiment [2], < 40 µM.

On to `CC1=NN(c2ccccc2)C(=O)/C1=C\c1ccc(-c2ccccc2F)o1` [Compound 19], for which the figures for the IC50 in experiment [1] (setting [3]) and in experiment [2] were < 10 µM and < 40 µM, respectively.

As to `COc1ccccc1-c1ccc(/C=C2\C(=O)N(c3ccc(C(=O)O)cc3)N=C2c2ccoc2)o1` [Compound 483], the IC50 was < 10 µM in experiment [1] (setting [3]) and 10 to 20 µM in experiment [2].

For `COc1ccccc1C(=O)Nc1ccc(C=C2C(=O)N(c3ccc(S(N)(=O)=O)cc3)N=C2C)cc1` [Compound 228], the IC50 was < 10 µM in experiment [1] and 10 to 20 µM in experiment [2].

`COc1cc(/C=C2\C(=O)N(c3ccccc3)N=C2c2ccoc2)ccc1O` [Compound 11]: the IC50 is < 10 µM in experiment [1] (setting [3]) and < 40 µM in experiment [2].

`CC1=NN(c2ccc(C(=O)O)cc2)C(=O)/C1=C\c1ccc2c(ccn2C(=O)c2ccccc2)c1` [Compound 528]: the IC50 in experiment [1] (setting [3]) is < 10 µM; in experiment [2], < 40 µM.

In the case of `CC1=NN(c2ccc(C(=O)O)cc2)C(=O)/C1=C\c1ccc(OCC(=O)N2CCCCC2)cc1` [Compound 533], the values for the IC50 in experiment [1] (setting [3]) and in experiment [2] were < 10 µM and 10 to 20 µM, respectively.

As for `CC(=O)c1ccc(-c2ccc(/C=C3\C(=O)N(c4cccc(C(=O)O)c4)N=C3C)o2)cc1` [Compound 504], the IC50 in experiment [1] (setting [3]) and in experiment [2] was 10 to 20 µM in each case.

For the compound `CCCCC1=NN(c2ccc(C(=O)O)cc2)C(=O)/C1=C\c1ccc(-n2ccnc2)cc1` [Compound 302], the results for the IC50 in experiment [1] (setting [3]) and in experiment [2] were < 10 µM and 10 to 20 µM, respectively.

Regarding `COc1cc(/C=C2\C(=O)N(c3ccccc3)N=C2C2CC2)ccc1O` [Compound 69], the IC50 in experiment [1] (setting [3]) and in experiment [2] was 10 to 20 µM in each case.

Consider `CCOC(=O)COc1ccc(C=C2C(=O)N(c3ccc(S(N)(=O)=O)cc3)N=C2C)cc1` [Compound 215], for which the IC50 in experiment [1] and in experiment [2] was 10 to 20 µM each time.
